{
  "source": "ChEMBL document CHEMBL3217495",
  "about": "“Interaction of long telomeric DNAs with macrocyclic hexaoxazole as a G-quadruplex ligand” (Medchemcomm, 2013)",
  "key": {"[1]": {"assay": "Stabilization of telo96 G-quadruplex DNA (unknown origin) assessed as melting temperature at 16 eq. by spectropolarimeter analysis in presence of KCl (reference value: 55 degC)"}, "[2]": {"assay": "Binding affinity to telo96 G-quadruplex DNA (unknown origin) assessed as change of topology from hybrid-type to anti-parallel form by CD spectrometry in presence of KCl"}, "[3]": {"assay": "Binding affinity to telo48 G-quadruplex DNA (unknown origin) assessed as appearance of new bands with longer migration distances after 14 hrs by electrophoresis mobility shift assay"}, "[4]": {"assay": "Binding affinity to telo72 G-quadruplex DNA (unknown origin) assessed as change of topology from hybrid-type to anti-parallel form by CD spectrometry in presence of KCl"}, "[5]": {"assay": "Binding affinity to telo72 G-quadruplex DNA (unknown origin) assessed as appearance of new bands with longer migration distances after 14 hrs by electrophoresis mobility shift assay"}, "[6]": {"assay": "Binding affinity to telo24 G-quadruplex DNA (unknown origin) assessed as change of topology from hybrid-type to anti-parallel form by CD spectrometry in presence of KCl"}, "[7]": {"assay": "Binding affinity to telo48 G-quadruplex DNA (unknown origin) assessed as change of topology from hybrid-type to anti-parallel form by CD spectrometry in presence of KCl"}, "[8]": {"assay": "Binding affinity to telo96 G-quadruplex DNA (unknown origin) assessed as appearance of new bands with longer migration distances after 14 hrs by electrophoresis mobility shift assay"}, "[9]": {"assay": "Binding affinity to telo24 G-quadruplex DNA (unknown origin) assessed as compound:telo24 complex formation at ratio of 2:1 after 14 hrs by electrophoresis mobility shift assay"}, "[10]": {"assay": "Stabilization of telo24 G-quadruplex DNA (unknown origin) assessed as melting temperature at 4 eq. by spectropolarimeter analysis in presence of KCl (reference value: 59 degC)"}, "[11]": {"assay": "Stabilization of telo48 G-quadruplex DNA (unknown origin) assessed as melting temperature at 8 eq. by spectropolarimeter analysis in presence of KCl (Rvb= 57 degC)"}, "[12]": {"assay": "Binding affinity to telo24 G-quadruplex DNA (unknown origin) assessed as appearance of new bands with longer migration distances after 14 hrs by electrophoresis mobility shift assay"}, "[13]": {"assay": "Stabilization of telo72 G-quadruplex DNA (unknown origin) assessed as melting temperature at 12 eq. by spectropolarimeter analysis in presence of KCl (reference value: 55 degC)"}},
  "note": "Activity calls are given as the source filed them. No cut-off for these calls is given here.",
  "data": [
    {"compound": "NCCCC[C@@H]1NC(=O)c2coc(n2)-c2coc(n2)-c2coc(n2)[C@H](CCCCN)NC(=O)c2coc(n2)-c2coc(n2)-c2coc1n2", "values": [
      {"measurement": "Tm", "setting": "[1]", "value": 70, "unit": "°C"},
      {"measurement": "Activity", "setting": "[2]", "value": "Active"},
      {"measurement": "Activity", "setting": "[3]", "value": "Active"},
      {"measurement": "Activity", "setting": "[4]", "value": "Active"},
      {"measurement": "Activity", "setting": "[5]", "value": "Active"},
      {"measurement": "Activity", "setting": "[6]", "value": "Active"},
      {"measurement": "Activity", "setting": "[7]", "value": "Active"},
      {"measurement": "Activity", "setting": "[8]", "value": "Active"},
      {"measurement": "Activity", "setting": "[9]", "value": "Active"},
      {"measurement": "Tm", "setting": "[10]", "value": 75, "unit": "°C"},
      {"measurement": "Tm", "setting": "[11]", "value": 76, "unit": "°C"},
      {"measurement": "Activity", "setting": "[12]", "value": "Active"},
      {"measurement": "Tm", "setting": "[13]", "value": 73, "unit": "°C"}
    ]}
  ]
}
